Counter-ions that a name gives are not always drawn. Like-named read-outs stand apart in the source and are kept apart here.
Columns and labels:
[1] = target: T1, proteasome in Molt-4 cells (human leukemia) (Homo sapiens, UniProt P20618+P28074); format: cell-based
T1 sequence (P28074 60-263): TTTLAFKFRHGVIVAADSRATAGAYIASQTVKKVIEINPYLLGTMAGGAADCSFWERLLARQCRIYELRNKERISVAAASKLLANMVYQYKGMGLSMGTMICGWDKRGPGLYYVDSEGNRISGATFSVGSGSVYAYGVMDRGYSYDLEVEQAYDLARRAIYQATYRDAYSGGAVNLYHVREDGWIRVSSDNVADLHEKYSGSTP
T1 sequence (P20618 29-241): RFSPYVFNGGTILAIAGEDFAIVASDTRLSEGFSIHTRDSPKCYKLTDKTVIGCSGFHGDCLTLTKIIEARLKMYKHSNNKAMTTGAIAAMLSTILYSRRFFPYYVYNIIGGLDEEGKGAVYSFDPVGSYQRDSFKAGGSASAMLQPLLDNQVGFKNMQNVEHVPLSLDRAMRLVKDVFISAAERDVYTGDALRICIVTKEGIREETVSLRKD
Summary of the method: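 Intact Molt-4 cells (6×10^6 cells/mL) in HEPES-buffered saline were preincubated with inhibitor 15 min at 37 °C, then given cell-permeable MeOSuc-FLF-AFC at 25 μM final.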

[2] = target: T2, 20S Human Erythrocyte Proteasome (HEP) (Homo sapiens, UniProt P20618+P28074); assay: Chymotrypsin-like activity of 20S Human Erythrocyte Proteasome (HEP), IC50 determination; format: biochemical; conditions: assay of Example C, inhibition of HEP
T2 construct: 20S Human Erythrocyte Proteasome (HEP), purchased from Immatics Biotechnologies Inc; purchased Immatics Biotechnologies Inc., Tübingen, Germany; host or cells: human erythrocytes (natural source)
Summary of the method: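 20S proteasome at 0.2 μg/mL (about 0.6 nM catalytic sites) in 20 mM Tris with 0.04% SDS, preincubated 15 min at 37° C with inhibitor before Suc-LLVY-AMC (100 μM final). AMC fluorescence read in the linear range; triplicates, IC50 from concentration series.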

[3] = assay of Example E, inhibition of MOLT4; read-out: MOLT4 (EC50)

Row | Compound | EC50 [1, 3] | IC50 [2] | EC50 ([1]; read-out: MOLT4 (EC50); assay of Example E, inhibition of MOLT4)
1 | CSCCC(=O)N[C@@H](CCCNC(=N)N[N+](=O)[O-])C(=O)N[C@@H](CC(C)C)B(O)O [E.2.50, Boronic acid, [(1R)-1-[[(2S)-5-[[imino(nitroamino)methyl]amino]-2-[(3-Methylsulfanylpropanoyl)amino]-1-oxopentyl]amino]-3-methylbutyl]] | > 10000 nM | < 10 nM | –
2 | CCCCCCCCS(=O)(=O)N[C@@H](CCCNC(=N)N[N+](=O)[O-])C(=O)N[C@@H](CC(C)C)B(O)O [E.1.15, Boronic acid, [(1R)-1-[[(2S)-5-[[imino(nitroamino)methyl]amino]-2-[(1-octanesulfonyl)amino]-1-oxopentyl]amino]-3-methylbutyl], HCl salt] | – | < 10 nM | 200 to 2000 nM
3 | COCCOCC(=O)N[C@@H](CCCNC(=N)N[N+](=O)[O-])C(=O)N[C@@H](CC(C)C)B1O[C@@H]2C[C@@H]3C[C@@H](C3(C)C)[C@]2(C)O1 [D.1.6] | 200 to 2000 nM | < 100 nM | –
4 | CC(C)C[C@H](NC(=O)[C@H](CCCNC(=N)N[N+](=O)[O-])NC(=O)CCCCCCCCCCCN1C(=O)c2ccccc2C1=O)B1O[C@@H]2C[C@@H]3C[C@@H](C3(C)C)[C@]2(C)O1 [D.3.189, 12-(1,3-Dioxo-1,3-dihydro-isoindol-2-yl)-dodecanamide, N-[(1S)-1-[[[(1R)-1-[(3aS,4S,6S,7aR)-hexahydro-3a,5,5-trimethyl-4,6-methano-1,3,2-benzodioxaborol-2-yl]-3-methylbutyl]amino]carbonyl]-4-[[imino(nitroamino)methyl]amino]butyl]] | < 200 nM | < 10 nM | –
5 | CCCCCCCCCC(=O)N[C@@H](CC(N)=O)C(=O)N[C@@H](CC(C)C)B(O)O [E.1.27, Boronic acid, [(1R)-1-[[(2S)-3-carbamoyl-2-[(decanoyl)amino]-1-oxopropyl]amino]-3-methylbutyl]] | < 200 nM | < 10 nM | –
6 | CCCCCc1ccc(S(=O)(=O)N[C@@H](CCCNC(=N)N[N+](=O)[O-])C(=O)N[C@@H](CC(C)C)B2O[C@@H]3C[C@@H]4C[C@@H](C4(C)C)[C@]3(C)O2)cc1 [D.4.8, 4-Pentyl-benzenesulfonamide, N-[(1S)-1-[[[(1R)-1-[(3aS,4S,6S,7aR)-hexahydro-3a,5,5-trimethyl-4,6-methano-1,3,2-benzodioxaborol-2-yl]-3-methylbutyl]amino]carbonyl]-4-[[imino(nitroamino)methyl]amino]butyl]] | < 200 nM | < 100 nM | –
7 | CCCCC(CC)CCC(=O)N[C@@H](CCCNC(=N)N[N+](=O)[O-])C(=O)N[C@@H](CC(C)C)B(O)O (mixture of isomers) [E.2.23, Boronic acid, [(1R)-1-[[(2S)-5-[[imino(nitroamino)methyl]amino]-2-[((RS)-4-ethyloctanoyl)amino]-1-oxopentyl]amino]-3-methylbutyl]] | 200 to 2000 nM | < 10 nM | –
8 | Cc1ccc(C)c(OCCCC(C)(C)C(=O)N[C@@H](CCCNC(=N)N[N+](=O)[O-])C(=O)N[C@@H](CC(C)C)B(O)O)c1 [D.7.17, Boronic acid, [(1R)-1-[[(2S)-5-[[imino(nitroamino)methyl]amino]-2-[[5-(2,5-dimethylphenoxy)-2,2-dimethylpentanoyl]amino]-1-oxopentyl]amino]-3-methylbutyl]] | 200 to 2000 nM | < 10 nM | –
9 | CC(C)C[C@H](NC(=O)[C@H](CCCNC(=N)N[N+](=O)[O-])NC(=O)C(CCCCCCCCC#N)C1CCCC1)B(O)O (mixture of isomers) [E.1.19, Boronic acid, [(1R)-1-[[(2S)-5-[[imino(nitroamino)methyl]amino]-2-[((RS)-10-cyano-2-cyclopentydecanoyl)amino]-1-oxopentyl]amino]-3-methylbutyl]] | 200 to 2000 nM | < 10 nM | –
10 | COc1ccc2cc([C@H](C)C(=O)N[C@@H](CCCNC(=N)N[N+](=O)[O-])C(=O)N[C@@H](CC(C)C)B3O[C@@H]4C[C@@H]5C[C@@H](C5(C)C)[C@]4(C)O3)ccc2c1 [D.3.93, (2S)-2-(6-Methoxynaphthalen-2-yl)-propanamide,N-[(1S)-1-[[[(1R)-1-[(3aS,4S,6S,7aR)-hexahydro-3a,5,5-trimethyl-4,6-methano-1,3,2-benzodioxaborol-2-yl]-3-methylbutyl]amino]carbonyl]-4-[[imino(nitroamino)methyl]amino]butyl]] | < 200 nM | < 10 nM | –
11 | Cc1ccc(OCC(=O)N[C@@H](CCCNC(=N)N[N+](=O)[O-])C(=O)N[C@@H](CC(C)C)B2O[C@@H]3C[C@@H]4C[C@@H](C4(C)C)[C@]3(C)O2)cc1C [D.3.67, 2-(3,4-Dimethylphenoxy)acetamide,N-[(1S)-1-[[[(1R)-1-[(3aS,4S,6S,7aR)-hexahydro-3a,5,5-trimethyl-4,6-methano-1,3,2-benzodioxaborol-2-yl]-3-methylbutyl]amino]carbonyl]-4-[[imino(nitroamino)methyl]amino]butyl]] | < 200 nM | < 10 nM | –
12 | COC(=O)CCCCCCC(=O)N[C@@H](CCCNC(=N)N[N+](=O)[O-])C(=O)N[C@@H](CC(C)C)B1O[C@@H]2C[C@@H]3C[C@@H](C3(C)C)[C@]2(C)O1 [D.2.5] | 200 to 2000 nM | < 10 nM | –

The next lines start with results.

Row | EC50 [1, 3] | IC50 [2] | Compound | EC50 ([1]; read-out: MOLT4 (EC50); assay of Example E, inhibition of MOLT4)
13 | 2000 to 10000 nM | < 10 nM | CCCCCC/C=C/C(=O)N[C@@H](CCCNC(=N)N[N+](=O)[O-])C(=O)N[C@@H](CC(C)C)B(O)O [E.2.19, Boronic acid, [(1R)-1-[[(2S)-5-[[imino(nitroamino)methyl]amino]-2-[(non-2-enoyl)amino]-1-oxopentyl]amino]-3-methylbutyl]] | –
14 | > 10000 nM | < 10 nM | CC(C)C[C@H](NC(=O)[C@H](CCCNC(=N)N[N+](=O)[O-])NC(=O)c1cccs1)B(O)O [E.2.10, Boronic acid, [(1R)-1-[[(2S)-5-[[imino(nitroamino)methyl]amino]-2-[(2-thiophenecarbonyl)amino]-1-oxopentyl]amino]-3-methylbutyl]] | –
15 | 2000 to 10000 nM | < 10 nM | CC(C)C[C@H](NC(=O)[C@H](CCCNC(=N)N[N+](=O)[O-])NC(=O)/C=C/c1ccc(Br)cc1)B(O)O [D.7.32, Boronic acid, [(1R)-1-[[(2S)-5-[[imino(nitroamino)methyl]amino]-2-[((E)-3-(4-bromophenyl)prop-2-enoyl)amino]-1-oxopentyl]amino]-3-methylbutyl]] | –
16 | 2000 to 10000 nM | < 10 nM | CC(C)C[C@H](NC(=O)[C@H](CCCNC(=N)N[N+](=O)[O-])NC(=O)CCCc1ccccc1)B(O)O [E.2.7, Boronic acid, [(1R)-1-[[(2S)-5-[[imino(nitroamino)methyl]amino]-2-[(4-phenylbutanoyl)amino]-1-oxopentyl]amino]-3-methylbutyl]] | –
17 | 2000 to 10000 nM | < 10 nM | CC(C)C[C@H](NC(=O)[C@H](CCCNC(=N)N[N+](=O)[O-])NC(=O)c1ccc(Br)cc1)B(O)O [D.7.39, Boronic acid, [(1R)-1-[[(2S)-5-[[imino(nitroamino)methyl]amino]-2-[(4-bromobenzoyl)amino]-1-oxopentyl]amino]-3-methylbutyl]] | –
18 | 2000 to 10000 nM | < 10 nM | CC(C)C[C@H](NC(=O)[C@H](CCCNC(=N)N[N+](=O)[O-])NC(=O)/C=C/c1ccccc1Br)B(O)O [E.2.52, Boronic acid, [(1R)-1-[[(2S)-5-[[imino(nitroamino)methyl]amino]-2-[[trans-3-(2-bromophenyl)acryl]amino]-1-oxopentyl]amino]-3-methylbutyl]] | –
